Source: PMC8304761, “Development of an Androgen Receptor Inhibitor Targeting the N-Terminal Domain of Androgen Receptor for Treatment of Castration Resistant Prostate Cancer” (Cancers, 2021)

Tests used:
[1] = test system: 22Rv1 cells; assay: Proliferation assay (PrestoBlue), 22Rv1; type: cell-based; conditions: Homo sapiens, 72 h, Figure 2D, read-out: IC50, viability of 22Rv1 cells
Method: (§1) Proliferation assay: LNCaP, 22Rv1 and PC3 cells were plated at 3000 cells per well in RPMI1640 containing 5% CSS in a 96-well plate, treated with 0.1 nm R1881 (a synthetic androgen) and test compounds (0–25 μM) for 72 h. Cell proliferation was determined using the PrestoBlue^TM cell proliferation assay following incubation with the compound […] over 72 h. In brief, 30 μL of the PrestoBlue^TM reagent was added to cells in each well of the 96-well plate containing 200 μL of media and incubated for 60 min at 37 °C in 5% CO2. The production of […]. Fluorescence measurement was read on a TECAN F200.
(§2) We then evaluated the effect of VPC-220010 on the proliferation of androgen-dependent LNCaP and ARV7-dependent 22Rv1 cells.

[2] = biological target: T1, AR-NTD (Gal4DBD-AR1-558) (Homo sapiens, UniProt P10275); assay: NTD-transactivation assay (mammalian two hybrid, forskolin) in LNCaP cells; type: cell-based; conditions: varying concentrations; Figure 3
T1 construct: expressed in transfected cells; host or cells: LNCaP
T1 sequence (P10275 1-558): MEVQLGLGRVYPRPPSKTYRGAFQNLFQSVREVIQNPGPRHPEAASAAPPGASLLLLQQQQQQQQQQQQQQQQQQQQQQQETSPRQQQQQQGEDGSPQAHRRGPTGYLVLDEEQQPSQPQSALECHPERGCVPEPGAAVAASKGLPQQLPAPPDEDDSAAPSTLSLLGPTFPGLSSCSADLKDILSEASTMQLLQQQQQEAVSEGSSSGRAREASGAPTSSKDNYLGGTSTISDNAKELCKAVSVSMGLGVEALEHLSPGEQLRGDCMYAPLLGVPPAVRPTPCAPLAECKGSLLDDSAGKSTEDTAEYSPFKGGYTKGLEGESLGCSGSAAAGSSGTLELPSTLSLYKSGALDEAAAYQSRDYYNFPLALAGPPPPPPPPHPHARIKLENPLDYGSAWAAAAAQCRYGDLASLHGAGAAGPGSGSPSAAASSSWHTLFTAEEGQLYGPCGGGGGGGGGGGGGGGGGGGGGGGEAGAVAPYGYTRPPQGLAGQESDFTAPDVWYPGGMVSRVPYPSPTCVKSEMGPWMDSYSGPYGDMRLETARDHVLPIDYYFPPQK
Method: Following 48 h incubation, cells were then treated with compounds at various concentrations and 0.1 nm R1881 (in 100% ethanol) for 24 h for AR assays. GR, ER, and PR activation was stimulated with 1 nm dexamethasone, estradiol, or progesterone, respectively. […] Cell lysis was carried out with 60 μL of 1× passive lysis buffer/well (Promega Madison, WI, USA). 20 μL of cell lysate from each well were mixed with 50 μL of luciferase assay reagent (Promega Madison, WI, USA), and luminescence was recorded on a TECAN M200pro plate reader.
To confirm the proposed mechanism of VPC-220010 we tested the effect of this compound on NTD-mediated transactivation. […] When incubated with forskolin, this system induces transcription activity through phosphorylation of the AR-NTD [10].

[3] = test system: ARV7-regulated genes UBE2C, AKT1 and CDC20; assay: qPCR of ARV7-regulated genes in 22Rv1 cells; type: cell-based, human; conditions: Figure 5B
Method: Total RNA was extracted from cells with Trizol and the Qiagen RNeasy RNA Extraction Kit (Qiagen Germantown, MD, USA). Approximately 8 × 10^6 cells were collected per sample, with three biological replicates for each treatment. The concentrations and the qualities of the RNA samples were checked by Nanodrop. cDNA was prepared busing MMLV-Reverse Transcriptase (Thermo Fisher Scientific, Waltham, MA, USA). qRT-PCR was performed with LightCycler® 480 SYBR Green I Master (Roche, Basel, Switzerland).

[4] = test system: LNCaP cells; assay: Proliferation assay (PrestoBlue), LNCaP; type: cell-based; conditions: Homo sapiens, 72 h, R1881, Figure 2C, read-out: IC50, viability of LNCaP cells
Method: as §1, §2

[5] = test system: prostate specific antigen (PSA); assay: Secreted PSA levels in LNCaP cells; type: cell-based; conditions: Homo sapiens; LNCaP cells; read-out: IC50, secreted PSA levels
Excerpt: Next, we tested the activity of VPC-220010 against full length AR using an AR-eGFP transcription assay in LNCaP cells. […] To further validate VPC-220010 as an AR inhibitor, we evaluated its ability to reduce the production of endogenous prostate specific antigen (PSA) in PCa cell lines. PSA is an AR-regulated serine protease and is widely used as a biomarker for PCa.

[6] = test system: PSA; parameters: method as in doi:10.1200/JCO.2019.37.7_suppl.257; conditions: patients, metastatic CRPC, low levels of circulating EPI-506; cited from earlier work

SMILES	IC50 [1] [µM]	AR-NTD activity induced by forskolin [2]	expression of ARV7-regulated genes UBE2C, AKT1 and CDC20 (qPCR) [3]	IC50 [4] [µM]	IC50 [5] [µM]	decrease in PSA [6]
CC(C)(c1ccc(OCC(O)CO)cc1)c1ccc(OCC(O)CCl)cc1 (stereo not drawn) [EPI-001, reference compound]	> 50	inhibited	inhibited	> 25	> 25	
CC(=O)OC[C@H](COc1ccc(C(C)(C)c2ccc(OC[C@@H](CCl)OC(C)=O)cc2)cc1)OC(C)=O [EPI-506]						4–29%
